Drawing on PubChem BioAssay AID2305 (GlaxoSmithKline (GSK), 2010), this text covers IC50 for 44 compounds.

The structures appear in SMILES notation.

The test system of the assay is P. falciparum 3D7 growth, pLDH absorbance. Nature of the assay: P. falciparum 3D7 growth inhibition, dose response, strain 3D7 (AID 2305).

The term IC50 denotes the concentration needed to halve the response being measured. A higher IC50 goes with lower potency.

The compound `CCn1c(-c2nonc2N)nc2c(-c3cccc(Cl)c3)ncc(OCCCNCCc3cnc[nH]3)c21` registered an IC50 of 980 nM.
With `c1ccc(COc2ccc(Nc3ncnc4cnc(-c5ccc(CNc6cccnc6)o5)cc34)cc2)cc1`, the IC50 is 860 nM.
The value for `O=C(NCC1CN(Cc2ccc(N3CCCC3)o2)CCCO1)c1ccc2c(c1)OCO2` (centres undefined) was 840 nM; that for `Oc1ccc(-c2nc(-c3ccc4oc5ccc(-c6[nH]c(-c7ccc(O)cc7)nc6-c6ccccc6)cc5c4c3)c(-c3ccccc3)[nH]2)cc1` was 1110 nM; that for `c1ccc2[nH]c(-c3ccc(-c4ccc(CN5CCCCC5)cc4)cc3)nc2c1` was 750 nM.
The value for `CC(C)(CN)c1cc(-c2ccc(Cl)c(O)c2)c(-c2ccncc2)o1` was 1140 nM; that for `Cc1ccc(NC(=O)Nc2ccccc2F)cc1-c1ccc(C(=O)Nc2ccncc2)cc1` was 560 nM; that for `CCCC(CNCc1cccc(OC(F)(F)F)c1)CNc1cc(=O)c2ccccc2[nH]1` (centres undefined) was 560 nM.
Take `Cc1ccc(C(C#N)c2ccc3c(C(F)(F)F)cc(C(F)(F)F)nc3n2)cc1` (centres undefined): the half-maximal inhibitory concentration (IC50) came to 700 nM.
In turn, `CCN(CC)Cc1cc(Nc2ccnc3cc(Cl)ccc23)ccc1O` came in with an IC50 of 160 nM.
To `COc1ccc2nccc(NN=Cc3cccc([N+](=O)[O-])c3)c2c1` belongs 400 nM; to `O=C(NCCCCN1CCC(c2ccc([N+](=O)[O-])cc2)CC1)c1ccc(NC(=O)c2ccc(Cl)cc2)cc1`, 760 nM.
To `O=C(Nc1ccc(Cn2ncc(N3CCCNCC3)c(Cl)c2=O)cc1)Nc1cc(Cl)cc(Cl)c1` belongs 870 nM; to `COc1ccc2nccc([C@@H](O)CN3CCC(NCc4ccc5c(c4)NC(=O)CS5)CC3)c2c1`, 570 nM; to `Cc1nc(-c2ccc(-c3ccc(NC(=O)c4coc5ccc(N6C[C@@H](C)N[C@@H](C)C6)cc45)cc3)c(C)c2)no1`, 930 nM.
As for `CCOc1cc(C(=O)NCCCN2CCCCC2C)ccc1-c1nc2ccc(Cl)cc2[nH]1` (centres undefined), the IC50 came out at 1070 nM. The IC50 values of the last two compounds are within 1.5-fold of each other.
With `COC(=O)[C@@H](NC(=O)[C@H](CC(C)C)Nc1ccc(C#N)c2ccccc12)c1ccc(O)cc1`, the IC50 stood at 790 nM.
To `Cc1noc(C)c1-c1ccc2c(Nc3ccccc3C(C)(C)C)c(C(=O)NCc3ccc(OC(C)C)cc3)cnc2c1` belongs 910 nM.
Turning to `CNCCN(C)C(=O)Oc1c(Cl)c(C)nc(C)c1-c1ccc(Oc2ccc(OC(F)(F)F)cc2)cc1`, the IC50 is 130 nM.
In turn, `CC(C)Cn1c(Sc2ccc(C#N)c([N+](=O)[O-])c2)nnc1-c1ccccc1` came in with an IC50 of 1090 nM. Compared with the last compound, the IC50 is about 8.4-fold higher.
Turning to `CCc1ccc2nc(-c3ccc(F)cc3)nc(SCC(=O)Nc3sc(C)c(C)c3C#N)c2c1`, the IC50 came out at 640 nM.
To `Cc1[nH]c2ccccc2c1C1=CCN(CCCCC2(C)C(=O)Nc3cccc(F)c32)CC1` (centres undefined) belongs 360 nM; to `NC1=NC(c2ccccc2)(c2ccccc2)C(=O)N1Cc1ccc(-c2ccncc2)cc1`, 770 nM.
For the compound `Cc1cc(C(=O)NC2CCN(Cc3ccccc3)CC2)ccc1-c1nc2cc(Cl)c(Cl)cc2[nH]1`, the IC50 came out at 960 nM.
To `CCCCCCNC(=O)C1Cc2c([nH]c3ccc(Br)cc23)C2(CCN(CCc3ccccc3)CC2)N1` (centres undefined) belongs 790 nM; to `O=S(=O)(Nc1cccc(CCN2CCCCC2CCN2CCCC2)c1)c1cccc2ccccc12` (centres undefined), 820 nM; to `CCN(CC)CCCC(C)Nc1ccnc2cc(C#N)ccc12` (centres undefined), 140 nM.
The value for `CC1(C)[C@H]2CC[C@@H](CNc3nc(NCCc4cnc[nH]4)nc(Nc4ccc5c(c4)OCO5)n3)[C@@H]1C2` was 540 nM; that for `O=C(Nc1cccc(-c2cccc(-c3nc4ccc(F)cc4[nH]3)c2)c1)c1csnn1` was 790 nM.
The value for `CN1CCc2cc(Br)c(O)cc2C1Cc1ccccc1Cl` (centres undefined) was 670 nM; that for `COc1ccc2oc(=O)c(C#N)c(O)c2c1` was 210 nM.
Consider `CC(C)(C)OC(=O)c1c(NC(=O)/C=C/c2ccc(O)c(O)c2)sc2c1CCCC2`, for which the IC50 was determined as 820 nM.
As to `CN(C)c1cccc2c1nc(-c1ccc3c(c1)CCO3)n2CCNCc1ccccc1`, the IC50 was 730 nM. The IC50 values of the last two compounds are within 1.5-fold of each other.
The value for `O=C(NC1CCN(Cc2ccccc2O)C1)c1ccc(-c2ccccc2)cc1` (centres undefined) was 840 nM; that for `CCN(C(=O)NC)[C@@H]1c2cc(C#N)ccc2OC(C)(C)[C@H]1O` was 300 nM; that for `CN(C)CCCOc1ccc(CCNCc2cccc(Oc3ccc(Cl)cc3)c2)cc1` was 890 nM.
`O=[N+]([O-])c1ccc(C=NNc2nc(Nc3ccccc3)nc(Nc3ccccc3)n2)o1` returned an IC50 of 840 nM.
To `CN(C)CCOc1cc(NC(=O)Nc2ccc3c(c2)CCCC3=O)ccc1I` belongs 940 nM.
The value for `Cn1cncc1C(=O)Nc1cccc(-c2csc(-c3nc4ccccc4[nH]3)c2)c1` was 450 nM; that for `CN(C(=O)Nc1ccc(C(F)(F)F)cc1)C1CCN(CCCCCNC(=O)/C=C/c2ccc(Cl)c(Cl)c2)CC1` was 330 nM; that for `COc1ccc(-c2cccc(NC(=O)c3cccc(C#N)c3)c2)cc1CN1CCNCC1` was 730 nM.
In the case of `CC(C)N(CCOc1ccc2c(c1)N(C(=O)Nc1ccc(Cl)c(Cl)c1)CC2)C(C)C`, the IC50 was determined as 370 nM.
In turn, `Cc1cc(N)c2cc(NC(=O)CCC(=O)Nc3ccc4nc(C)cc(N)c4c3)ccc2n1` had an IC50 of 950 nM.
As to `Fc1ccc2nc(-c3ccc(-c4ccc(CNCc5ccccc5)cc4)cc3)[nH]c2c1`, the IC50 came out at 280 nM.
